Data published in ChEMBL document CHEMBL4024727, “Synthesis and antimycobacterial screening of new thiazolyl-oxazole derivatives” (Eur J Med Chem, 2017).
Values after ≈ are worked out from the molar mass of the structure shown.

What was measured:
[1] = tested on: Mycobacterium tuberculosis; assay: Growth inhibition of Mycobacterium tuberculosis H37Ra ATCC 25177 at 30 ug/ml by XTT dye based two-fold dilution method relative to control; assay type: functional; settings: read-out: GI
[2] = tested on: Mycobacterium tuberculosis; assay: Growth inhibition of Mycobacterium tuberculosis H37Ra ATCC 25177 at 10 ug/ml by XTT dye based two-fold dilution method relative to control; assay type: functional; settings: read-out: GI
[3] = tested on: Mycobacterium tuberculosis; assay: Growth inhibition of Mycobacterium tuberculosis H37Ra ATCC 25177 at 3 ug/ml by XTT dye based two-fold dilution method relative to control; assay type: functional; settings: read-out: GI
[4] = tested on: Mycobacterium tuberculosis; assay: Growth inhibition of Mycobacterium bovis BCG ATCC 35743 at 30 ug/ml by nitrate reductase based two-fold dilution assay relative to control; assay type: functional; settings: BCG str. ATCC 35743, read-out: GI
[5] = tested on: Mycobacterium tuberculosis; assay: Growth inhibition of Mycobacterium bovis BCG ATCC 35743 at 10 ug/ml by nitrate reductase based two-fold dilution assay relative to control; assay type: functional; settings: BCG str. ATCC 35743, read-out: GI
[6] = tested on: Mycobacterium tuberculosis; assay: Growth inhibition of Mycobacterium bovis BCG ATCC 35743 at 1 ug/ml by nitrate reductase based two-fold dilution assay relative to control; assay type: functional; settings: BCG str. ATCC 35743, read-out: GI
[7] = tested on: Mycobacterium tuberculosis; assay: Antitubercular activity against Mycobacterium tuberculosis H37Ra ATCC 25177 dormant stage by XTT dye based two-fold dilution method; assay type: functional
[8] = tested on: Mycobacterium tuberculosis; assay: Antitubercular activity against Mycobacterium bovis BCG ATCC 35743 dormant stage by nitrate reductase based two-fold dilution assay; assay type: functional; settings: BCG str. ATCC 35743
Escherichia coli [9] = assay: Growth inhibition of Escherichia coli NCIM 2576 at 30 ug/ml measured after 8 hrs relative to control; assay type: functional; settings: NCIM 2576, 8 h, read-out: GI
Escherichia coli [10] = assay: Growth inhibition of Escherichia coli NCIM 2576 at 10 ug/ml measured after 8 hrs relative to control; assay type: functional; settings: NCIM 2576, 8 h, read-out: GI
Escherichia coli [11] = assay: Growth inhibition of Escherichia coli NCIM 2576 at 1 ug/ml measured after 8 hrs relative to control; assay type: functional; settings: NCIM 2576, 8 h, read-out: GI
Pseudomonas fluorescens [12] = assay: Growth inhibition of Pseudomonas fluorescens NCIM 2059 at 30 ug/ml measured after 8 hrs relative to control; assay type: functional; settings: NCIM 2059, 8 h, read-out: GI
Pseudomonas fluorescens [13] = assay: Growth inhibition of Pseudomonas fluorescens NCIM 2059 at 10 ug/ml measured after 8 hrs relative to control; assay type: functional; settings: NCIM 2059, 8 h, read-out: GI
Pseudomonas fluorescens [14] = assay: Growth inhibition of Pseudomonas fluorescens NCIM 2059 at 1 ug/ml measured after 8 hrs relative to control; assay type: functional; settings: NCIM 2059, 8 h, read-out: GI
Staphylococcus aureus [15] = assay: Growth inhibition of Staphylococcus aureus NCIM 2602 at 30 ug/ml measured after 12 hrs relative to control; assay type: functional; settings: NCIM 2602, 12 h, read-out: GI
Staphylococcus aureus [16] = assay: Growth inhibition of Staphylococcus aureus NCIM 2602 at 10 ug/ml measured after 12 hrs relative to control; assay type: functional; settings: NCIM 2602, 12 h, read-out: GI
Staphylococcus aureus [17] = assay: Growth inhibition of Staphylococcus aureus NCIM 2602 at 1 ug/ml measured after 12 hrs relative to control; assay type: functional; settings: NCIM 2602, 12 h, read-out: GI
Bacillus subtilis [18] = assay: Growth inhibition of Bacillus subtilis NCIM 2162 at 30 ug/ml measured after 12 hrs relative to control; assay type: functional; settings: NCIM 2162, 12 h, read-out: GI
Bacillus subtilis [19] = assay: Growth inhibition of Bacillus subtilis NCIM 2162 at 10 ug/ml measured after 12 hrs relative to control; assay type: functional; settings: NCIM 2162, 12 h, read-out: GI
Bacillus subtilis [20] = assay: Growth inhibition of Bacillus subtilis NCIM 2162 at 1 ug/ml measured after 12 hrs relative to control; assay type: functional; settings: NCIM 2162, 12 h, read-out: GI
Escherichia coli [21] = assay: Antibacterial activity against Escherichia coli NCIM 2576 measured after 8 hrs; assay type: functional; settings: NCIM 2576, 8 h
Pseudomonas fluorescens [22] = assay: Antibacterial activity against Pseudomonas fluorescens NCIM 2059 measured after 8 hrs; assay type: functional; settings: NCIM 2059, 8 h
Staphylococcus aureus [23] = assay: Antibacterial activity against Staphylococcus aureus NCIM 2602 measured after 12 hrs; assay type: functional; settings: NCIM 2602, 12 h
Bacillus subtilis [24] = assay: Antibacterial activity against Bacillus subtilis NCIM 2162 measured after 12 hrs; assay type: functional; settings: NCIM 2162, 12 h
HeLa = assay: (§1) Growth inhibition of human HeLa cells by MTT assay; assay type: cell-based; settings: hela
A549 = assay: (§2) Growth inhibition of human A549 cells by MTT assay; assay type: cell-based; settings: a549
PANC-1 = assay: (§3) Growth inhibition of human PANC1 cells by MTT assay; assay type: cell-based; settings: panc-1
[25] = as §1; assay type: cell-based; settings: HeLa cells
[26] = as §2; assay type: cell-based; settings: A549 cells
[27] = as §3; assay type: cell-based, PANC-1; settings: PANC-1 cells

SMILES	inhibition of growth at 30 µg/mL [1]	inhibition of growth at 10 µg/mL [2]	inhibition of growth at 3 µg/mL [3]	inhibition of growth at 30 µg/mL [4]	inhibition of growth at 10 µg/mL [5]	inhibition of growth at 1 µg/mL [6]	IC50 [7]	MIC90 [7]	IC50 [8]	MIC90 [8]	inhibition of growth at 30 µg/mL (Escherichia coli [9])	inhibition of growth at 10 µg/mL (Escherichia coli [10])	inhibition of growth at 1 µg/mL (Escherichia coli [11])	inhibition of growth at 30 µg/mL (Pseudomonas fluorescens [12])	inhibition of growth at 10 µg/mL (Pseudomonas fluorescens [13])	inhibition of growth at 1 µg/mL (Pseudomonas fluorescens [14])	inhibition of growth at 30 µg/mL (Staphylococcus aureus [15])	inhibition of growth at 10 µg/mL (Staphylococcus aureus [16])	inhibition of growth at 1 µg/mL (Staphylococcus aureus [17])	inhibition of growth at 30 µg/mL (Bacillus subtilis [18])	further results
Cc1nc(-c2ccc(F)cc2)oc1-c1csc(-c2ccc(Br)cc2)n1	54%	45%	43%	42%	36%	28%	> 100 µM	> 100 µM	> 100 µM	> 100 µM	69%	60.7%	48.9%	68.3%	54.2%	48.6%	67.8%	56.6%	44.1%	68.2%	inhibition of growth at 10 µg/mL (Bacillus subtilis [19]): 51.8%; inhibition of growth at 1 µg/mL (Bacillus subtilis [20]): 46.5%; MIC (Escherichia coli [21]): > 100 µM; MIC (Pseudomonas fluorescens [22]): > 100 µM; MIC (Staphylococcus aureus [23]): > 100 µM; MIC (Bacillus subtilis [24]): > 100 µM
Cc1nc(-c2ccc(F)cc2)oc1-c1csc(-c2ccc(F)c(Cl)c2)n1	13%	11%	6%	29%	23%	21%	> 100 µM	> 100 µM	> 100 µM	> 100 µM	64.2%	55.9%	45.7%	65.8%	56.2%	44.3%	63%	55.2%	45.7%	69.4%	inhibition of growth at 10 µg/mL (Bacillus subtilis [19]): 55.6%; inhibition of growth at 1 µg/mL (Bacillus subtilis [20]): 41.2%; MIC (Escherichia coli [21]): > 100 µM; MIC (Pseudomonas fluorescens [22]): > 100 µM; MIC (Staphylococcus aureus [23]): > 100 µM; MIC (Bacillus subtilis [24]): > 100 µM
Cc1nc(-c2ccc(F)cc2)oc1-c1csc(-c2ccccc2)n1	31%	13%	13%	33%	32%	28%	> 100 µM	> 100 µM	> 100 µM	> 100 µM	50.7%	47.8%	21.3%	53.1%	41.9%	22.4%	58.8%	40.7%	24%	53.3%	inhibition of growth at 10 µg/mL (Bacillus subtilis [19]): 47.8%; inhibition of growth at 1 µg/mL (Bacillus subtilis [20]): 21%; MIC (Escherichia coli [21]): > 100 µM; MIC (Pseudomonas fluorescens [22]): > 100 µM; MIC (Staphylococcus aureus [23]): > 100 µM; MIC (Bacillus subtilis [24]): > 100 µM
Cc1nc(-c2ccc(F)cc2)oc1-c1csc(Cc2ccc(Cl)cc2)n1	39%	25%	9%	42%	32%	24%	> 100 µM	> 100 µM	> 100 µM	> 100 µM	21%	16.1%	7.55%	20.9%	20.1%	4.37%	21.1%	14.1%	5.76%	27.6%	inhibition of growth at 10 µg/mL (Bacillus subtilis [19]): 13.9%; inhibition of growth at 1 µg/mL (Bacillus subtilis [20]): 9.95%; MIC (Escherichia coli [21]): > 100 µM; MIC (Pseudomonas fluorescens [22]): > 100 µM; MIC (Staphylococcus aureus [23]): > 100 µM; MIC (Bacillus subtilis [24]): > 100 µM
Cc1nc(-c2ccc(F)cc2)oc1-c1csc(-c2ccc(Cl)cc2)n1	13%	4%	3%	33%	29%	25%	> 100 µM	> 100 µM	> 100 µM	> 100 µM	24.9%	10.4%	5.86%	21.5%	20.7%	0.52%	25.8%	19.5%	8.6%	20.5%	inhibition of growth at 10 µg/mL (Bacillus subtilis [19]): 12.9%; inhibition of growth at 1 µg/mL (Bacillus subtilis [20]): 4.2%; MIC (Escherichia coli [21]): > 100 µM; MIC (Pseudomonas fluorescens [22]): > 100 µM; MIC (Staphylococcus aureus [23]): > 100 µM; MIC (Bacillus subtilis [24]): > 100 µM
Cc1nc(-c2ccc(F)cc2)oc1-c1csc(-c2cccc(Cl)c2)n1	32%	29%	29%	32%	24%	23%	> 100 µM	> 100 µM	> 100 µM	> 100 µM	49.5%	40.5%	23.4%	48.3%	38.3%	24.8%	48.1%	35.7%	28.5%	50.8%	inhibition of growth at 10 µg/mL (Bacillus subtilis [19]): 40.6%; inhibition of growth at 1 µg/mL (Bacillus subtilis [20]): 28.8%; MIC (Escherichia coli [21]): > 100 µM; MIC (Pseudomonas fluorescens [22]): > 100 µM; MIC (Staphylococcus aureus [23]): > 100 µM; MIC (Bacillus subtilis [24]): > 100 µM
CC(=O)O[C@H]1C(=O)[C@@]2(C)[C@H]([C@H](OC(=O)c3ccccc3)[C@]3(O)C[C@H](OC(=O)[C@H](O)[C@@H](NC(=O)c4ccccc4)c4ccccc4)C(C)=C1C3(C)C)[C@]1(OC(C)=O)CO[C@@H]1C[C@@H]2O [PACLITAXEL]	–	–	–	–	–	–	–	–	–	–	–	–	–	–	–	–	–	–	–	–	GI90 (HeLa): 0.075 µg/mL (≈ 0.0878 µM); GI90 (A549): 0.0706 µg/mL (≈ 0.0827 µM); GI90 (PANC-1): 5.715 µg/mL (≈ 6.69 µM)
CO[C@H]1/C=C/O[C@@]2(C)Oc3c(C)c(O)c4c(O)c(c(/C=N/N5CCN(C)CC5)c(O)c4c3C2=O)NC(=O)/C(C)=C\C=C\[C@H](C)[C@H](O)[C@@H](C)[C@@H](O)[C@@H](C)[C@H](OC(C)=O)[C@@H]1C [RIFAMPIN]	99.5%	98%	96.4%	99%	96.8%	94.6%	0.0024 µM	0.91 µM (≈ 0.749 µg/mL)	0.04 µM	0.98 µM (≈ 0.806 µg/mL)	–	–	–	–	–	–	–	–	–	–	GI50 [25]: > 100 µg/mL; GI90 (HeLa): > 100 µg/mL; GI50 [26]: > 100 µg/mL; GI90 (A549): > 100 µg/mL; GI50 [27]: > 100 µg/mL; GI90 (PANC-1): > 100 µg/mL
